Here are results for six compounds from BindingDB's records for doi:10.1021/jm00168a011 (Merrell Dow Research Institute, 1990).

Where a name gives a salt, the structure may show the parent alone.

By Kd is commonly meant the constant that tells how readily two partners part at equilibrium. A low value points to tighter binding.

The experiment has as its target T1, 5-hydroxytryptamine receptor 3A/3B (Mus musculus, UniProt P23979+Q9JHJ5).
T1 sequence (P23979 whole entry): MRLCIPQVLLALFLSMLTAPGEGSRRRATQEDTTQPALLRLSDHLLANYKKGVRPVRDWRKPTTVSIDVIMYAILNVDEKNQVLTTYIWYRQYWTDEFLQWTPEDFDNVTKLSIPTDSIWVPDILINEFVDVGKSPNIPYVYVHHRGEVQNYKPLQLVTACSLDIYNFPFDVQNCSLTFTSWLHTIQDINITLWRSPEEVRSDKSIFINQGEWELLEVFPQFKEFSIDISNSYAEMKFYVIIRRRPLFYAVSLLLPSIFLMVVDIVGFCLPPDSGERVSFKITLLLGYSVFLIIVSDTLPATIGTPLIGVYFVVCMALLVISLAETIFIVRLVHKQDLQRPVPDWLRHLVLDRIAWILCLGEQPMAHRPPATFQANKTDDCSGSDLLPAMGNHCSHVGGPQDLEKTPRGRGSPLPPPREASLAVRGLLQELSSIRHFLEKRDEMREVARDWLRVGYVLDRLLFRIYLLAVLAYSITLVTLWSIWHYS
T1 sequence (Q9JHJ5 whole entry): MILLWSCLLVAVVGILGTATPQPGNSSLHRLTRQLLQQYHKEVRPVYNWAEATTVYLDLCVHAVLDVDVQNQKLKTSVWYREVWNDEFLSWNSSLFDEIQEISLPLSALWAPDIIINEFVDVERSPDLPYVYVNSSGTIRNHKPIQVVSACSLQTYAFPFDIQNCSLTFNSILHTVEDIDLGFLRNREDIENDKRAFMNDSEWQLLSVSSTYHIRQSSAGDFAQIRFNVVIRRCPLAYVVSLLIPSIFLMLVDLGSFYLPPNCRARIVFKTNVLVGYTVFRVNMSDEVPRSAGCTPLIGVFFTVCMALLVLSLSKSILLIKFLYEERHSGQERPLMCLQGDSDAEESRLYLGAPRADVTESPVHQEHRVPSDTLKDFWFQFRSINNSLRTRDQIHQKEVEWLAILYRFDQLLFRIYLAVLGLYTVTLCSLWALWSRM
Description: Binding affinity towards 5-hydroxytryptamine 3 receptor was determined by using [3H]-ICS 205-930 as radioligand in mouse N1E 115 cells.
`c1ccc2nc(N3CCNCC3)ccc2c1` [2-Piperazin-1-yl-quinoline (Quipazine)]: the equilibrium dissociation constant (Kd) is 2 nM.
Then `CCN(CC)CCNC(=O)c1cc(Cl)c(N)cc1OC` [4-amino-5-chloro-N-[2-(diethylamino)ethyl]-2-methoxy-benzamide;hydrochloride], with 224 nM; and `CN1[C@@H]2CC[C@H]1C[C@@H](OC(=O)c1c[nH]c3ccccc13)C2` [(3-ENDO)-8-METHYL-8-AZABICYCLO[3.2.1]OCT-3-YL 1H-INDOLE-3-CARBOXYLATE], with 0.813 nM.
`O=C(OC1CC2CCC(C1)N2)c1c[nH]c2ccccc12` (stereo unspecified) [NORTROPISETRON] showed a Kd of 0.724 nM.
On to `Cc1nccn1CC1CCc2c(c3ccccc3n2C)C1=O` (stereo unspecified) [NSC_68647], for which the dissociation constant (Kd) is 13 nM.
For `CN1[C@@H]2CC[C@H]1C[C@@H](OC(=O)c1cc(Cl)cc(Cl)c1)C2` [TROPANYL 3,5-DICHLOROBENZOATE] the value was 6.2 nM.
